These results are taken from patent US20240262826A1, “WILD TYPE KIT INHIBITORS” (Blueprint Medicines Corporation, priority 2022, published 2024).

pIC50: −log10 of the molar value.

The target of data set [1] is human P-glycoprotein (P-gp, MDR1) (Homo sapiens (Human), UniProt P08183). The experiment in a line: MDCK-MDR1 cell monolayer drug transport assay (P-gp efflux ratio). In kind it is in vitro ADME. As to conditions: pH 7.4, MDCK-MDR1 cells; for efflux ratio at 2 h, 1 µM: 1 uM concentration of compound, read-out: Pgp Efflux Ratio, 1 uM. In outline: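 P-gp substrate potential tested in MDCK-MDR1 monolayers on Transwell supports, cultured 4-8 days; monolayers with TEER <42 ohms·cm2 discarded. Transport run in HBSS (10 mM HEPES, pH 7.4) at 37° C with compound working solution at 1 μM.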
Sequence of human P-glycoprotein (P-gp, MDR1) (P08183 whole entry): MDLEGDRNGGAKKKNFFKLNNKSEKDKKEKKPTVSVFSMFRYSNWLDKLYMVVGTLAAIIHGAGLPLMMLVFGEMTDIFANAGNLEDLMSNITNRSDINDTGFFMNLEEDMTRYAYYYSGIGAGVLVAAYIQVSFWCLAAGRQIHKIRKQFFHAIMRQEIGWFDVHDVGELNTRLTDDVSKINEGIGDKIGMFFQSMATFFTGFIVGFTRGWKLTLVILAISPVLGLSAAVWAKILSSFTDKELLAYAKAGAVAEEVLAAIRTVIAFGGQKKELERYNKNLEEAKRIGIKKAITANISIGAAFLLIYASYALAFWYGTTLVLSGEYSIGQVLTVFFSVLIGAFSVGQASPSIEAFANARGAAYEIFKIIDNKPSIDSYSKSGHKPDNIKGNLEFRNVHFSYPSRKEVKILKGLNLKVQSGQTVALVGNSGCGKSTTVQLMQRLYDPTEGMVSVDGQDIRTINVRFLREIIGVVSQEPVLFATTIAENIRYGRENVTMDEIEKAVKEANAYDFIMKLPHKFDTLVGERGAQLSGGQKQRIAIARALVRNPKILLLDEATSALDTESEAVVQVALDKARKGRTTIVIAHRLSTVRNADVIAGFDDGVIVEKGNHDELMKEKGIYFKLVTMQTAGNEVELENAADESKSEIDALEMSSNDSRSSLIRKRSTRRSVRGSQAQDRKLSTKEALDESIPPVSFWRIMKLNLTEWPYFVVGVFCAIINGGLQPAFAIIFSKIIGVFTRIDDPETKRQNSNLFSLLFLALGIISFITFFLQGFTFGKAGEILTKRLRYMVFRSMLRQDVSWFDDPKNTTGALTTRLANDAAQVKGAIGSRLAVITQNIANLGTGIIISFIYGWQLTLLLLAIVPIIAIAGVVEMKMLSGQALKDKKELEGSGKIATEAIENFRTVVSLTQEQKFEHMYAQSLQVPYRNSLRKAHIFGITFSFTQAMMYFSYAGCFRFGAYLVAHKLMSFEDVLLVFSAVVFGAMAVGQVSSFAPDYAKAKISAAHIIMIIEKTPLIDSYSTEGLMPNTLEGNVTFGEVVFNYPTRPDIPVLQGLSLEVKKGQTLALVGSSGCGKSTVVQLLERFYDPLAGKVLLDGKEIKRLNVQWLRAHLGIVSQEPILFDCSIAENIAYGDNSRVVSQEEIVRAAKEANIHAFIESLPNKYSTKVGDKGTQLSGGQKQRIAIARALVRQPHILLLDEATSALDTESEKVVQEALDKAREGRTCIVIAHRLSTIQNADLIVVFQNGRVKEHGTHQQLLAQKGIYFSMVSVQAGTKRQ

Data set [2] has as its target wild type c-kit (Homo sapiens (Human), UniProt P10721). The experiment in a line: PathScan phospho c-kit (Tyr719) sandwich ELISA in SCF-stimulated M-07e cells (pKIT assay). In kind it is cell-based. Particulars: ELISA assay (values not marked *). An outline of the steps: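 Serum- and GM-CSF-starved M-07e cells (4 h) pretreated 60 min at 37 °C with an 8-point compound series in duplicate (0.25% DMSO), then stimulated with human SCF (500 ng/mL stock) 10 min at room temperature. Lysate c-kit Tyr719 phosphorylation quantified by sandwich ELISA with TMB read-out; IC50 from 4-parameter logistic fit.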
On the technique in general: ELISA stands for enzyme-linked immunosorbent assay.

Sequence of wild type c-kit (P10721 26-976): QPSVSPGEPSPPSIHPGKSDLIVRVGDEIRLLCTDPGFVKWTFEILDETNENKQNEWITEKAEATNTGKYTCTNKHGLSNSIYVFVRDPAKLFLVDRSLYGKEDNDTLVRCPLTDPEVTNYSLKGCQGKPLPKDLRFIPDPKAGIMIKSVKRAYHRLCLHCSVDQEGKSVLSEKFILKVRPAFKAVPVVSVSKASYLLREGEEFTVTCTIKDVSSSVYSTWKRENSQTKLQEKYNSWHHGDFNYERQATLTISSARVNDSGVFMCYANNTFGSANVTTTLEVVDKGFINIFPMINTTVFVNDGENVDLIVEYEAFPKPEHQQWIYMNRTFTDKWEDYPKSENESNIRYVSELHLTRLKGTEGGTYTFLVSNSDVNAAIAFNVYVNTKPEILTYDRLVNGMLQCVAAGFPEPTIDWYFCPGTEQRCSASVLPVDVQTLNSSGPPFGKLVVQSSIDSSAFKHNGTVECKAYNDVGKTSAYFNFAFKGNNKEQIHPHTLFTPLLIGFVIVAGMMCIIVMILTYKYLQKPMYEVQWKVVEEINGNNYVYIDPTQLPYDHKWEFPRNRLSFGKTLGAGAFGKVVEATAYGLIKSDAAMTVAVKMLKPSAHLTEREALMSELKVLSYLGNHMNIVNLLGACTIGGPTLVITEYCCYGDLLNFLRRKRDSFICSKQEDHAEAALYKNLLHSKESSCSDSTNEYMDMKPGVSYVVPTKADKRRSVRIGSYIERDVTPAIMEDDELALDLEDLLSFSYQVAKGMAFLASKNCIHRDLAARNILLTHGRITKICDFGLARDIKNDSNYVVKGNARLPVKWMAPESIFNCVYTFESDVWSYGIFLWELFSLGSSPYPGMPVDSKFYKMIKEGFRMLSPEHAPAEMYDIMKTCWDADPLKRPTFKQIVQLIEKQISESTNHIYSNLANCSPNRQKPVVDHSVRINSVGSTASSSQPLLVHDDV

Broadly, the pIC50 is the IC50 on a negative log10 scale, so that one unit is a factor of ten. Low values mean a high IC50, high ones a low IC50. Consider `COCCNc1ccc2c(C(=O)Nc3cc(-c4nnn(C5CN(C(=O)OC)C5)n4)ccc3Cl)cnn2c1` [Example 157, methyl 3-(5-(4-chloro-3-(6-((2-methoxyethyl)amino)pyrazolo[1,5-a]pyridine-3-carboxamido)phenyl)-2H-tetrazol-2-yl)azetidine-1-carboxylate], for which the efflux ratio at 2 h, 1 µM in data set [1] was determined as 5.9. In data set [2], this molecule showed a pIC50 of 8.19.

With `COC(=O)N1CC(n2nnc(-c3ccc(C)c(NC(=O)c4cnn5ccc(NCCOC(C)(C)C)cc45)c3)n2)C1` [Example 93, methyl 3-(5-(3-(5-((2-(tert-butoxy)ethyl)amino)pyrazolo[1,5-a]pyridine-3-carboxamido)-4-methylphenyl)-2H-tetrazol-2-yl)azetidine-1-carboxylate], the efflux ratio at 2 h, 1 µM in data set [1] was found to be 11.4. This molecule also had a negative-log IC50 (pIC50) in data set [2] of 7.54.

For `COC(=O)N1CC(c2cnn(-c3ccc(C)c(NC(=O)c4cnn5ccc(NC6COC6)cc45)c3)n2)C1` [Example 141, methyl 3-(2-(4-methyl-3-(5-(oxetan-3-ylamino)pyrazolo[1,5-a]pyridine-3-carboxamido)phenyl)-2H-1,2,3-triazol-4-yl)azetidine-1-carboxylate], the efflux ratio at 2 h, 1 µM in data set [1] is 36.4. This molecule had a pIC50 in data set [2] of 8.12.

With `COC(=O)N1CC(c2nnn(-c3ccc(C)c(NC(=O)c4cnn5ccc(N6CCN(C)CC6)cc45)c3)n2)C1` [Example 112, methyl 3-(2-(4-methyl-3-(5-(4-methylpiperazin-1-yl)pyrazolo[1,5-a]pyridine-3-carboxamido)phenyl)-2H-tetrazol-5-yl)azetidine-1-carboxylate], the efflux ratio at 2 h, 1 µM in data set [1] came out at 15.7. Besides, the pIC50 in data set [2] was 7.36.

Take `COCCNc1ccn2ncc(C(=O)Nc3cc(-c4nnn(C5CN(C(=O)OC)C5)n4)c(F)cc3C)c2c1` [Example 114, methyl 3-(5-(2-fluoro-5-(5-((2-methoxyethyl)amino)pyrazolo[1,5-a]pyridine-3-carboxamido)-4-methylphenyl)-2H-tetrazol-2-yl)azetidine-1-carboxylate]: the efflux ratio at 2 h, 1 µM in data set [1] was 14.6. For the same molecule, in data set [2], the pIC50 is 7.50.

As to `COC(=O)N1CC(n2nnc(-c3ccc(C)c(NC(=O)c4cnn5ccc(NCC(C)(F)F)cc45)c3)n2)C1` [Example 92, methyl 3-(5-(3-(5-((2,2-difluoropropyl)amino)pyrazolo[1,5-a]pyridine-3-carboxamido)-4-methylphenyl)-2H-tetrazol-2-yl)azetidine-1-carboxylate], in data set [1], the efflux ratio at 2 h, 1 µM amounted to 11.4. The molecule further showed a pIC50 in data set [2] of 7.66.

Turning to `Cc1ccc(-c2nnn(C3CN(S(C)(=O)=O)C3)n2)cc1NC(=O)c1cnn2ccc(COCC(F)F)cc12` [Example 154, 5-((2,2-difluoroethoxy)methyl)-N-(2-methyl-5-(2-(1-(methylsulfonyl)azetidin-3-yl)-2H-tetrazol-5-yl)phenyl)pyrazolo[1,5-a]pyridine-3-carboxamide], the efflux ratio at 2 h, 1 µM in data set [1] is 37.6. The molecule also showed a pIC50 in data set [2] of 7.73.

With `Cc1ccc(-c2nnn(C3CN(S(C)(=O)=O)C3)n2)cc1NC(=O)c1cnn2ccccc12` [Example 172, N-(2-methyl-5-(2-(1-(methylsulfonyl)azetidin-3-yl)-2H-tetrazol-5-yl)phenyl)pyrazolo[1,5-a]pyridine-3-carboxamide], the efflux ratio at 2 h, 1 µM in data set [1] was found to be 5.5. Further, in data set [2], the pIC50 was 7.45.

Regarding `Cc1ccc(-c2nnn(C3CC(F)(F)C3)n2)cc1NC(=O)c1cnn2ccc(N3CC[C@H](O)C3)cc12` [Example 62, (S)-N-(5-(2-(3,3-difluorocyclobutyl)-2H-tetrazol-5-yl)-2-methylphenyl)-5-(3-hydroxypyrrolidin-1-yl)pyrazolo[1,5-a]pyridine-3-carboxamide], the efflux ratio at 2 h, 1 µM in data set [1] came to 11. Also, the pIC50 in data set [2] is 8.21.

Consider `COCCOCCNc1ccn2ncc(C(=O)Nc3cc(-c4nnn(C5CN(C(=O)OC)C5)n4)ccc3C)c2c1` [Example 146, methyl 3-(5-(3-(5-((2-(2-methoxyethoxy)ethyl)amino)pyrazolo[1,5-a]pyridine-3-carboxamido)-4-methylphenyl)-2H-tetrazol-2-yl)azetidine-1-carboxylate], for which the efflux ratio at 2 h, 1 µM in data set [1] stood at 15.4. The molecule also showed a pIC50 in data set [2] of 7.05.

In the case of `Cc1nn(CC2(O)CCOCC2)cc1-c1ccn2ncc(C(=O)Nc3cc(-n4nnc([C@H]5C[C@@H]5F)n4)ccc3Cl)c2c1` (single isomer, unassigned) [Example 272, N-(2-chloro-5-(5-((1R,2S)-2-fluorocyclopropyl)-2H-tetrazol-2-yl)phenyl)-5-(1-((4-hydroxytetrahydro-2H-pyran-4-yl)methyl)-3-methyl-1H-pyrazol-4-yl)pyrazolo[1,5-a]pyridine-3-carboxamide or N-(2-chloro-5-(5-((1S,2R)-2-fluorocyclopropyl)-2H-tetrazol-2-yl)phenyl)-5-(1-((4-hydroxytetrahydro-2H-pyran-4-yl)methyl)-3-methyl-1H-pyrazol-4-yl)pyrazolo[1,5-a]pyridine-3-carboxamide], the efflux ratio at 2 h, 1 µM in data set [1] came to 7. In data set [2], the pIC50 is 9.05.

As for `COC(=O)N1CC(n2nnc(-c3ccc(C)c(NC(=O)c4cnn5ccc(COCC(F)F)cc45)c3)n2)C1` [Example 162, methyl 3-(5-(3-(5-((2,2-difluoroethoxy)methyl)pyrazolo[1,5-a]pyridine-3-carboxamido)-4-methylphenyl)-2H-tetrazol-2-yl)azetidine-1-carboxylate], the efflux ratio at 2 h, 1 µM in data set [1] worked out at 5.3. This molecule also gave a pIC50 in data set [2] of 7.74.

With `Cc1cc(F)c(-c2nnn([C@H]3C[C@@H](C(F)(F)F)C3)n2)cc1NC(=O)c1cnn2ccc(N3CC(C)(O)C3)cc12` [Example 64, N-(4-fluoro-2-methyl-5-(2-((1s,3s)-3-(trifluoromethyl)cyclobutyl)-2H-tetrazol-5-yl)phenyl)-5-(3-hydroxy-3-methylazetidin-1-yl)pyrazolo[1,5-a]pyridine-3-carboxamide], in data set [1], the efflux ratio at 2 h, 1 µM came to 39.3. In addition, in data set [2], the pIC50 was 8.43.

Regarding `COC(=O)N1CC(n2nnc(-c3ccc(C)c(NC(=O)c4cnn5ccc(N6CCN(C)CC6)cc45)c3)n2)C1` [Example 66, methyl 3-(5-(4-methyl-3-(5-(4-methylpiperazin-1-yl)pyrazolo[1,5-a]pyridine-3-carboxamido)phenyl)-2H-tetrazol-2-yl)azetidine-1-carboxylate], the efflux ratio at 2 h, 1 µM in data set [1] worked out at 13.5. In addition, in data set [2], the pIC50 was 7.19.

As to `Cc1cc(Cl)c(NC(=O)c2cnn3ccc(-c4cnn(CC(C)(C)O)c4)cc23)cc1-c1nnn(C2CC2)n1` [Example 227, N-(2-chloro-5-(2-cyclopropyl-2H-tetrazol-5-yl)-4-methylphenyl)-5-(1-(2-hydroxy-2-methylpropyl)-1H-pyrazol-4-yl)pyrazolo[1,5-a]pyridine-3-carboxamide], in data set [1] (0.1 uM concentration of compound (denoted by **), read-out: Pgp Efflux Ratio), the efflux ratio at 2 h, 0.1 µM amounted to 5. Further, in data set [2], the negative logarithm of the IC50 (pIC50) is 8.72.

Regarding `COCCCc1ccn2ncc(C(=O)Nc3cc(-c4nnn(C5CN(C(=O)OC)C5)n4)ccc3C)c2c1` [Example 58, methyl 3-(5-(3-(5-(3-methoxypropyl)pyrazolo[1,5-a]pyridine-3-carboxamido)-4-methylphenyl)-2H-tetrazol-2-yl)azetidine-1-carboxylate], the efflux ratio at 2 h, 1 µM in data set [1] was 4.1. The pIC50 in data set [2] was 6.90.
